Assay results as given in ChEMBL document CHEMBL3046335, “Prediction of anti-HIV activity of imidoyl thioureas: QSAR approach” (Med Chem Res, 2009).

Experiments:
[1] = system: Human immunodeficiency virus 1; test: microbe, parasite or virus in culture; settings: Human immunodeficiency virus 1, read-out: pIC50 (converted)
Description: Antiviral activity against wild type Human immunodeficiency virus 1

physchem = settings: octanol/water
Description: Octanol-water partition coefficient, log P of the compound

SMILES | IC50 [1] [nM] | logP (physchem)
N#C/N=C(\NCCc1ccc(C#N)cc1)N/C(Cc1c(Cl)cccc1Cl)=N\c1ccccc1 | 158 | 5.98
C/N=C(/Cc1c(Cl)cccc1Cl)NC(=O)Nc1ccc(C#N)cc1 | 214 | 5.96
N#Cc1ccc(N/C(S)=N/C(=N)Cc2c(F)cccc2F)cc1 | 6 | 2.95
N#Cc1ccc(NC(=O)NC(=N)Cc2c(Cl)cccc2Cl)cc1 | 15 | 3.71
N=C(Cc1c(Cl)cccc1Cl)NC(=S)Nc1ccc(Cl)cc1 | 13 | 4.19
Cc1ccccc1CC(=N)/N=C(\S)Nc1ccc(C#N)cc1 | 26 | 3.13
N#Cc1ccc(NC(=S)NC(=N)c2c(Cl)cccc2Cl)cc1 | 43.7 | 5.46
CN(C)C(Cc1c(Cl)cccc1Cl)/N=C(\S)Nc1ccc(C#N)cc1 (stereo not drawn) | – | 5.64
N#Cc1ccc(NC(=S)NC(=N)Cc2ccc(Cl)cc2Cl)cc1 | 7 | 3.7
N=C(Cc1c(Cl)cccc1Cl)NC(=S)NCCc1ccc(Cl)cc1 | 617 | 6.22
N#Cc1ccc(NC(=S)NC(=N)Cc2c(Cl)ccc(Cl)c2Cl)cc1 | 5 | 4.22
N#Cc1ccc(NC(=S)NC(=N)Cc2c(Cl)cccc2Cl)cc1 | 126 | 4.83
N#Cc1cccc(NC(=S)NC(=N)Cc2c(Cl)cccc2Cl)c1 | 126 | 3.7
N=C(Cc1c(Cl)cccc1Cl)NC(=S)Nc1ccccc1 | 123 | 3.67
N#Cc1ccc(NC(=S)NC(=N)Cc2ccc(Cl)cc2)cc1 | 148 | 3.19
N=C(Cc1c(Cl)cccc1Cl)NC(=S)NCc1ccc(Cl)cc1 | 692 | 5.97
COc1ccccc1CC(=N)/N=C(\S)Nc1ccc(C#N)cc1 | 30 | 2.42
N#Cc1ccc(NC(=S)NC(=N)C2(c3c(Cl)cccc3Cl)CC2)cc1 | 676 | 6.11
CN/C(Cc1c(Cl)cccc1Cl)=N\C(S)=N\c1ccc(C#N)cc1 | 77.4 | 6.75
N#Cc1ccc(NC(=S)NC(=N)CCc2c(Cl)cccc2Cl)cc1 | 525 | 5.79
CN(C)C(Cc1c(Cl)cccc1Cl)NC(=N)Nc1ccc(C#N)cc1 (stereo not drawn) | 757 | 7.06
N#Cc1ccc(NC(=S)NC(=N)Cc2ccccc2)cc1 | 380 | 2.67
N=C(Cc1c(Cl)cccc1Cl)NC(=S)Nc1ccc(Cl)cc1Cl | 347 | 4.7
N#Cc1ccc(NC(=S)NC(=N)Cc2cccc(Cl)c2)cc1 | 67.9 | 3.19
N#Cc1ccc(NC(=S)NC(=N)Cc2ccccc2Cl)cc1 | 14 | 3.19
CCN/C(Cc1c(Cl)cccc1Cl)=N\C(S)=N\c1ccc(C#N)cc1 | 195 | 5.77
CC(C(=N)/N=C(\S)Nc1ccc(C#N)cc1)c1c(Cl)cccc1Cl (stereo not drawn) | 158 | 5.95
